Drawing on ChEMBL document CHEMBL1142781, “Chemical modification of the naphthoyl 3-position of JWH-015: in search of a fluorescent probe to the cannabinoid CB2 receptor” (Bioorg Med Chem Lett, 2005), this text covers Ki and Activity for five molecules.

For test [1], the target named is T1, Cannabinoid receptor 2 (Homo sapiens, UniProt P34972). Put plainly: In vitro inhibitory activity towards human cannabinoid receptors 2 using fluorescence assay.
The target of test [2] is T1, Cannabinoid receptor 2. Put plainly: Percentage ([35S]GTP-gamma-S binding was determined from basal towards human cannabinoid receptor 2 at 1 uM concentration […]. The format is functional. On the technique in general: Binding of GTPγS marks nucleotide exchange on a G protein.
In test [3] the target is T1, Cannabinoid receptor 2. The test can be described thus: In vitro inhibitory activity towards human cannabinoid receptors 2 using fluorescence assay at 10 uM concentration. More on the design: scale not given: the % may be the effect or the level left.

The structures appear in SMILES notation.

T1 sequence (P34972 whole entry): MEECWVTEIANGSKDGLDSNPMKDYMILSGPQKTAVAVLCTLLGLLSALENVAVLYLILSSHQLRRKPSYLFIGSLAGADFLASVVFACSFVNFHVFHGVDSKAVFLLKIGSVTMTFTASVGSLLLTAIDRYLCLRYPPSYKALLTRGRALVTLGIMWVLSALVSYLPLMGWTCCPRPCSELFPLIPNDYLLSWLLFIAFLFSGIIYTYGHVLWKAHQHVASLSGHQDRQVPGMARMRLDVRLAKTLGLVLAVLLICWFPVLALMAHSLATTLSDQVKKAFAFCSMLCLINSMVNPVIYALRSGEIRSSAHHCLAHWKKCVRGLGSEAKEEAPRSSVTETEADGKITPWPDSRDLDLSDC

By Ki is commonly meant the equilibrium dissociation constant of an inhibitor or competing ligand from its target. For the molecule `CCCn1c(C)c(C(=O)c2cc(NC(=O)CN)cc3ccccc23)c2ccccc21`, the Ki at Cannabinoid receptor 2 [1] was determined as 420 nM.

`CCCn1c(C)c(C(=O)c2cccc3ccccc23)c2ccccc21` displayed an Activity at Cannabinoid receptor 2 [2] of 142%.

`CCCn1c(C)c(C(=O)c2cc(NC(=O)CNc3ccc([N+](=O)[O-])c4nonc34)cc3ccccc23)c2ccccc21` showed an Activity on Cannabinoid receptor 2 [3] of 25%.

For `CCCn1c(C)c(C(=O)c2cc(N)cc3ccccc23)c2ccccc21`, the Activity at Cannabinoid receptor 2 [2] came out at 151%. On Cannabinoid receptor 2 [1], this molecule displayed a Ki of 191 nM.

The molecule `CCCn1c(C)c(C(=O)c2cc([N+](=O)[O-])cc3ccccc23)c2ccccc21` came in with an Activity on Cannabinoid receptor 2 [2] of 134%. At Cannabinoid receptor 2 [1], this molecule gave a Ki of 143 nM.
